Data on 85 compounds can be found in PubChem BioAssay AID588780 (Sanford-Burnham Center for Chemical Genomics, 2011).

Calls of active or inactive are those of the source.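 How the source made its calls: active means compounds whose fitted half-maximal concentration in the cell-protection dose series is at or below a set limit; inactive means the rest.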 Bounds are passed on as bounds.

In general, IC50 refers to the concentration at which inhibition is half-maximal.

The experiment deals with H9c2 cardiomyocytes, 2-deoxyglucose stress, ATP luminescence, 2 h. The experiment can be described thus: H9c2 cell survival under 2-deoxyglucose stress – uHTS hits, dose response (AID 588780).
In the case of `CCOc1cc(/C=C/c2ccc3cccc([N+](=O)[O-])c3n2)ccc1OCC(=O)N(C)C`, the 50% inhibitory concentration (IC50) was 12.5 µM.
`CCN(CC)CCNC(=O)CCc1n[nH]c(=O)c2ccccc12`: the IC50 is > 79 µM (inactive).
Consider `COc1ccccc1NC(=O)c1ccc(NC(=O)Cc2n[nH]c(=O)c3ccccc23)cc1`, for which the IC50 was > 79 µM (inactive).
As to `COc1cc(NC(=O)c2cc3nc(-c4ccccc4)cc(-c4ccccc4)n3n2)cc(OC)c1OC`, the IC50 is > 79 µM (inactive).
As for `O=C(CCCn1c(SCC(=O)c2ccc(O)c(O)c2)nc2ccccc2c1=O)NCC1CCCO1` (stereo not given), the IC50 is 38.7 µM (inactive).
The figure for `CN(C(=O)Cn1nc(C(=O)O)c2ccccc2c1=O)C1(C#N)CCCCC1` is > 79 µM (inactive); for `CCOC(=O)Cc1c(C)nc2c(-c3ccc(Cl)cc3)c[nH]n2c1=O` it is > 79 µM (inactive).
As to `O=c1[nH]c2ccccc2n1CCCN1CCC(n2c(=O)[nH]c3cc(Cl)ccc32)CC1`, the IC50 was > 79 µM (inactive).
`Cc1cc(C)cc(OCC(=O)Nc2cccc(-c3nnc(-c4ccco4)o3)c2)c1`: the IC50 is > 79 µM (inactive).
Turning to `NC(=O)c1cccc(-c2coc3c(C(=O)NCCc4ccccc4)cccc23)c1`, the IC50 is > 79 µM (inactive).
Then `NC(=O)c1ccccc1OCC(=O)NC12CC3CC(CC(C3)C1)C2`, with > 79 µM (inactive); and `COc1c(C)cc(Br)cc1C(=O)Nc1cccc(-c2nc3ncccc3o2)c1`, with > 79 µM (inactive); and `Cc1ccc(NC(=O)c2nc[nH]c2C(=O)NCCCCCNC(=O)OC(C)(C)C)cc1`, with > 79 µM (inactive).
`COc1cc(-c2cc(C(=O)OCC(=O)NC3CC3)c3ccccc3n2)cc(OC)c1OC`: the IC50 was 10.7 µM.
For the compound `COc1cc(C(=O)Nc2cc3c(cc2N2CCCCC2)n(C)c(=O)n3C)cc(OC)c1OC`, the IC50 was 25.4 µM.
`COc1cc(NC(=O)c2ccco2)c(OC)cc1NC(=O)c1cc(OC)c(OC)c(OC)c1`: the IC50 is > 79 µM (inactive).
Take `COc1cc(-c2cc(NC=O)c3ncc(-c4cccc(C(F)(F)F)c4)n3c2)cc(OC)c1OC`: the IC50 is > 79 µM (inactive).
Regarding `COC(=O)/C=C/c1ccc(OC(=O)OC)c(OC(=O)OC)c1`, the IC50 is > 79 µM (inactive).
Regarding `COc1cc(-c2cnc3c(NC=O)cc(-c4cccnc4)cn23)cc(OC)c1OC`, the IC50 was 30 µM.
Consider `O=C(/C=C/NNC(=O)c1ccccc1)c1ccc(Br)cc1`, for which the IC50 was > 79 µM (inactive).
Regarding `O=C(CCc1nc2ccccc2c(=O)[nH]1)OCc1nnc(-c2ccccc2)o1`, the IC50 was > 79 µM (inactive).
Take `CCCCCn1c(=O)c(C(=O)NCc2ccccn2)c(O)c2ccccc21`: the IC50 was 7.77 µM.
For `COc1ccc(Cl)cc1NC(=O)CN(C)C(=O)CCc1nc2ccccc2c(=O)[nH]1`, the IC50 was > 79 µM (inactive).
In the case of `CCOC(=O)N1CCC(NC(=O)c2cc3c(-c4ccccc4F)nn(C)c3s2)CC1`, the IC50 is > 79 µM (inactive).
In the case of `O=C(CN1CCCCC1)Nc1nc(-c2ccc(F)c(F)c2)cs1`, the IC50 was 70.7 µM (inactive).
Consider `Cc1nn(-c2ccccc2)c(Cl)c1C(=O)NNC(=O)c1ccccc1O`, for which the IC50 was > 79 µM (inactive).
Turning to `Cc1cc(NC(=O)c2cccs2)cc(-c2nc3ncccc3o2)c1O`, the IC50 was > 79 µM (inactive).
The figure for `O=C(Nc1cc(S(=O)(=O)N2CCOCC2)ccc1N1CCCCC1)c1cc(-c2ccccn2)nc2ccccc12` is > 79 µM (inactive); for `O=C1C2C3C=CC(CC3)C2C(=O)N1c1cccc(Br)c1` (stereo not given) it is > 79 µM (inactive); for `CCOC(=O)N1CCC(N2C(=O)c3ccccc3C2Nc2cc(OC)c(OC)c(OC)c2)CC1` (stereo not given) it is > 79 µM (inactive).
With `CCCc1cc(N2CCN(C(=O)c3ccco3)CC2)n2c(nc3ccccc32)c1C#N`, the half-maximal inhibitory concentration (IC50) was 21.4 µM.
Take `Brc1ccc(-c2nn3c(-c4ccccn4)nnc3s2)o1`: the IC50 is 52.8 µM (inactive).
For the compound `O=C(Nc1ccc(C(=O)N2CCOCC2)cc1)c1cnn2c(C(F)F)cc(-c3ccccc3)nc12`, the IC50 was > 79 µM (inactive).
For `O=C(CNC(=O)c1nc[nH]c1C(=O)NCc1ccccc1)OCc1ccccc1`, the IC50 is > 79 µM (inactive).
On to `CCC(=O)Oc1ccc2c(C)cc(=O)oc2c1C`, for which the IC50 is > 79 µM (inactive).
The figure for `O=C(COC(=O)Cc1n[nH]c(=O)c2ccccc12)Nc1ccc(Cl)cn1` is > 79 µM (inactive); for `O=C(CCc1nc2ccccc2c(=O)[nH]1)N1CCN(S(=O)(=O)c2ccccc2Br)CC1` it is > 79 µM (inactive).
For `CCC(CC)C(=O)N(CCc1ccc(OC)cc1)Cc1nc2ccccc2c(=O)[nH]1`, the IC50 is > 79 µM (inactive).
In the case of `CC(Oc1ccc(Br)cc1)C(=O)Nc1nc(-c2ccccn2)cs1` (stereo not given), the IC50 was > 79 µM (inactive).
For `CC(C)=CCc1ccc(O)c(=O)cc1C(C)C`, the IC50 was > 79 µM (inactive).
With `Cc1cccc(NC(=O)c2nc[nH]c2C(=O)NCC(=O)OCc2ccccc2)c1`, the IC50 was > 79 µM (inactive).
The figure for `COc1ccc(Nc2nc(Nc3ccc(OC)cc3OC)nc(N3CCN(C)CC3)n2)c(OC)c1` is 43.4 µM (inactive); for `O=C(CN1C(=O)C2CC=CCC2C1=O)Nc1nc(-c2ccc(F)c(F)c2)cs1` (stereo not given) it is > 79 µM (inactive).
For the compound `COc1cc(/C=N/NC(=O)c2ccncc2)ccc1OCC(=O)Nc1ccc(C)c(C)c1`, the IC50 was > 79 µM (inactive).
As to `CC(=O)Nc1cccc(NC(=O)CSc2ccc(-c3ccccn3)nn2)c1`, the IC50 is > 79 µM (inactive).
Then `COc1ccc(CN(C)C(=O)C(Cc2ccccc2)NC(=O)c2ccccc2)cc1F` (stereo not given), with 7.05 µM; and `CCOc1ccc2[nH]c(=O)c(CN(Cc3ccco3)C(CC)c3nnnn3Cc3ccccc3)cc2c1` (stereo not given), with > 79 µM (inactive).
Regarding `COc1nc(N/N=C/c2cc3c(cc2Br)OCO3)nc(N2CCOCC2)n1`, the IC50 is 15.7 µM.
For the compound `COc1cc(NC(=O)c2ccco2)c(C(=O)OCC(=O)c2c[nH]c3ccccc23)cc1OC`, the IC50 was 7.59 µM.
`CCOCCn1ccc2c(OCC(=O)Nc3cc(OC)ccc3OC)cccc2c1=O`: the IC50 is > 79 µM (inactive).
On to `Cc1ccccc1C1c2[nH]c3ccccc3c2C[C@H]2C(=O)N(c3ccccc3C(=O)NCCCN3CCOCC3)C(=O)N12` (stereo not given in full), for which the IC50 was 27.1 µM.
Consider `CCOC(=O)c1cnc(SC)nc1Oc1cccc(NC(=O)c2cccc(Cl)c2Cl)c1`, for which the IC50 was 20.4 µM.
On to `COc1ccc(Cc2n[nH]c(=O)c3ccccc23)cc1OC`, for which the IC50 is > 79 µM (inactive).
Take `O=c1[nH]nc(-c2cccs2)c2ccccc12`: the IC50 is 5.51 µM.
For `Cc1cc(OCC(=O)N2CCOCC2)cc2oc(=O)c3ccccc3c12`, the IC50 was 14.7 µM.
As to `NC(=O)c1ccc(NC(=O)COc2cccc3c2CCNC3=O)cc1`, the IC50 was > 79 µM (inactive).
In the case of `CCOC(=O)c1ccccc1OCc1cc(/C=N/NC(=O)c2cccnc2)ccc1OC`, the IC50 is 10.7 µM.
Regarding `CCOC(=O)C1=C(C)Nc2ccccc2N=C1NC(=O)c1oc2ccccc2c1COC`, the IC50 was > 79 µM (inactive).
For `O=C(NC1CCCCC1)C(c1ccc2ncccc2c1)N(Cc1cccs1)C(=O)c1cccs1` (stereo not given), the IC50 was 22 µM.
Then `O=C(CNC(=O)c1ccc(F)cc1)N/N=C/c1cc(Br)ccc1OC(=O)/C=C/c1ccco1`, with > 79 µM (inactive); and `O=C(COC(=O)Cc1n[nH]c(=O)c2ccccc12)NNC(=O)c1ccc(Cl)cc1`, with > 79 µM (inactive); and `O=C(C(=O)N(Cc1ccccc1)Cc1ccccc1)c1c(-c2ccccc2)[nH]c2ccccc12`, with > 79 µM (inactive).
With `COc1ccc(-c2nnc3sc(-c4ccco4)nn23)cc1OC`, the IC50 was > 79 µM (inactive).
Consider `Cc1nc2ccccc2c(=O)[nH]1`, for which the IC50 is > 79 µM (inactive).
In the case of `O=C(COC(=O)Cn1[nH]c(=O)c2ccccc2c1=O)Nc1c(Cl)cccc1C(F)(F)F`, the IC50 is > 79 µM (inactive).
The figure for `O=C(CN1CCN(S(=O)(=O)c2cc(Cl)ccc2Cl)CC1)c1ccc(O)c(O)c1` is > 79 µM (inactive); for `CCOC(=O)N1CCc2c(sc(NC(=O)CN3CCOCC3)c2C(=O)Nc2ccccc2)C1` it is 54.6 µM (inactive); for `c1coc(-c2nnc3sc(-c4cccs4)nn23)c1` it is > 79 µM (inactive).
For `Cc1ccc(-n2cc(-c3ccccc3)c3c(N4CCOCC4)ncnc32)cc1`, the IC50 was > 79 µM (inactive).
As for `COc1ccc2[nH]c(=O)c(CNC3CCCCC3)cc2c1`, the IC50 is > 79 µM (inactive).
As to `COc1ccc(N=Cc2cc(Cl)ccc2O)cc1Cl`, the IC50 is > 79 µM (inactive).
Then `COc1cc(C(=O)Nc2nc(-c3cccs3)cs2)cc(OC)c1OC`, with 7.2 µM; and `CCOC(=O)c1nn(-c2cccc(OC)c2)c2nc(Nc3ccccc3)cc(=O)n12`, with > 79 µM (inactive).
In the case of `CCOc1ccc(NCc2cc3c(C(C)(C)C)nn(-c4ccccc4)c3[nH]c2=O)cc1`, the IC50 is > 79 µM (inactive).
In the case of `O=C(CCc1nc2ccccc2c(=O)[nH]1)N1CCN(S(=O)(=O)c2cccc([N+](=O)[O-])c2)CC1`, the IC50 was > 79 µM (inactive).
For the compound `O=C(CCc1nc2ccccc2c(=O)[nH]1)OCC(=O)N1CCc2ccccc21`, the IC50 was > 79 µM (inactive).
`O=C1c2ccccc2NC(c2ccc([N+](=O)[O-])cc2)N1O` (stereo not given): the IC50 was > 79 µM (inactive).
Consider `Cc1cc(C)c2c(N)c(C(=O)N/N=C/c3cccnc3)sc2n1`, for which the IC50 is 19.1 µM.
Regarding `Cn1c(=O)[nH]c(=O)c2c1nc(N(CCO)Cc1ccccc1)n2CCCc1ccccc1`, the IC50 is > 79 µM (inactive).
On to `CC/C(C)=N\N=C\c1c(O)n(CC)c2cc(C3=NNC(=O)CC3)ccc12`, for which the IC50 is 32.4 µM (inactive).
`O=C(Oc1cccc2c(=O)[nH]ccc12)c1ccccc1`: the IC50 was 9.07 µM.
`CCCCOc1ccc(C(=O)NCC(=O)N(C)Cc2nc3ccccc3c(=O)[nH]2)cc1`: the IC50 is > 79 µM (inactive).
For `Cc1[nH]c(-c2ccccn2)nc(=S)c1Cl`, the IC50 is > 79 µM (inactive).
`O=c1[nH]c2cc(F)ccc2c2ccc(F)cc12`: the IC50 was 73.6 µM (inactive).
As for `CCCN1CCN(C(=O)CCc2nnc3ccc(N4CCN(c5cccc(OC)c5)CC4)nn23)CC1`, the IC50 was > 79 µM (inactive).
